Laboratory results reported in article doi:10.1101/2025.03.14.643404, “A Bivalent Molecular Glue Linking Lysine Acetyltransferases to Oncogene-induced Cell Death” (bioRxiv, 2025).

Tests used:
BRPF1 = target: T1, BRPF1 (Homo sapiens, UniProt P55201); test: BROMOscan binding to recombinant human bromodomains; details: 10 μM
T1 construct: purchased BROMOscan (service)

PUMA/BBC3 = test: Global proteome profiling in SUDHL5, PUMA/BBC3 abundance; assay type: cell-based, human; details: SUDHL5, 10 nM, 24 hours
Description: SUDHL5 cells (6M cells in 6 mL RPMI-1640 media supplemented with 10% FBS and 1x pen-strep) were treated with 0.1% DMSO, 10 nM TCIP3, 10 nM Neg1, 10 nM Neg2, or 250 nM dCBP1 (1000x stocks in DMSO for final 0.1% DMSO concentration) in 3 biologically independent replicates. The cells were washed twice with TBS (50 mM Tris, pH 8.5, and 150 mM NaCl) and then stored at −80 °C until use.
Lysis was performed by first thermally denaturing the samples in residual wash buffer for 5 min at 95 °C. Fresh Lysis Buffer (8 M urea, 150 mM NaCl, and 100 mM HEPES, pH 8.0, in MS-grade water) was then added, and the lysates were homogenized using needle ultrasonication and then normalized to 30 μg of 2 mg/mL by diluting with Lysis Buffer via a Bradford protein concentration assay (Bio-Rad 5000006) in technical duplicates. […]
Samples were then desalted using SOLAμ SPE HRP Peptide Desalting columns (Thermo 60209–001) with a Positive Pressure Manifold and all MS-grade reagents. […] The samples were then reconstituted in 0.1% FA in water and then analyzed by LC-MS/MS (see below).
The reconstituted desalted peptides were then analyzed using a nanoElute 2 UHPLC (Bruker Daltonics, Bremen, Germany) coupled to a timsTOF HT (Bruker Daltonics, Bremen, Germany) via a CaptiveSpray nano-electrospray source. […]

p300^BD-BCL6^BTB = test: TR-FRET ternary assay p300BD-BCL6BTB; assay type: binding, human
Description: 10 μL reactions containing 10 nM 6x-His- p300^BD or 6x-His-CBP^BD, 200 nM BiotinylatedAvi-BCL6^BTB, 20 nM streptavidin-FITC (SA1001, Thermo), and 1:400 anti-6x-His-terbium (PerkinElmer 61HI2TLF) in buffer containing 20 mM HEPES pH 7.5, 150 mM NaCl, 0.1% BSA, 0.1% NP-40, and 1 mM TCEP were plated in low-volume 384 well plates. Drugs were digitally dispensed (Tecan D300e) into protein-containing wells, and the plate was allowed to incubate in the dark for 1 hour at room temperature. Emission at 490 nm (terbium) and 520 nm (FITC) was measured on a PHERAstar FS plate reader (BMG Labtech) upon excitation with 337 nm. The ratio of signal at 520 nm to 490 nm was calculated and normalized to DMSO-treated protein.

SUDHL5 cells = test: TUNEL and total DNA content co-staining of SUDHL5; assay type: cell-based, human; details: SUDHL5, 10 nM
Description: 1 million SUDHL5 cells were plated in 6 mL of media in 6-well plates and treated with compound for indicated timepoints and doses. 1.2 million total cells were counted, washed in PBS, fixed in 4% paraformaldehyde/PBS at a concentration of 10M/mL for 15 minutes at room temperature in the dark, washed in PBS, and stored in 70% ethanol at −20°C until ready for processing (at least 24 hours). DNA breaks in fixed cells were labeled with bromolated deoxyuridine (Br-dUTP or BrdU) by incubation with deoxynucleotidyl transferase (TdT) for 60 min at 37°C, washed, and stained with FITC-labeled anti-BrdU antibodies for 30 min at room temperature in the dark (BD 556405). Cells were resuspended in 1% BSA/PBS with 1:100 RNaseA (Invitrogen 12091021) and co-stained with 7-AAD for 30 min at room temperature in the dark (BD 559925). The suspension was gently agitated by shaking and analyzed by flow cytometry within 1 hour (BD Accuri).

p300^WT = p300^WT (Homo sapiens, UniProt Q09472); test: TR-FRET binary displacement assay, p300 WT bromodomain; assay type: binding; details: α = Kd binary/Kd ternary
Chain of p300^WT (Q09472 1049-1156 limits assumed): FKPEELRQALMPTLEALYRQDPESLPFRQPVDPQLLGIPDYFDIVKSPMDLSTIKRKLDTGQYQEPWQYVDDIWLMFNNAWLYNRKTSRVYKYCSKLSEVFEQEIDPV
Description: Drugs were digitally dispensed (Tecan D300e) into protein-containing wells, and the plate was allowed to incubate in the dark for 1 hour at room temperature. Emission at 490 nm (terbium) and 520 nm (FITC) was measured on a PHERAstar FS plate reader (BMG Labtech) upon excitation with 337 nm. The ratio of signal at 520 nm to 490 nm was calculated and normalized to DMSO-treated protein.

T1 sequence (P55201 628-732 limits assumed): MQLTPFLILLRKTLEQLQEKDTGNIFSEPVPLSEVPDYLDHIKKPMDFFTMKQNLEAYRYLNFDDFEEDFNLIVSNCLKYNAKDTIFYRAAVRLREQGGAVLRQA

Structure (SMILES): CNC(=O)COc1cc2cc(Nc3nc(N4CCC(C(=O)N5CCN(CCC(=O)N6CCC(n7nc(N8CCCc9cc(-c%10cnn(C)c%10)c(C(F)F)cc98)c8c7CCN(C(=O)NC)C8)CC6)CC5)CC4)ncc3Cl)cc(OC)c2n(C)c1=O [TCIP3]
- bromodomain selectivity (BRPF1): may also engage BRPF1 at high compound concentrations
- PUMA/BBC3 log2(TCIP3 / DMSO fold change) (PUMA/BBC3): 0.72
- TR-FRET signal AUC, times higher than NEG1 (p300^BD-BCL6^BTB): 23 times
- TR-FRET signal AUC, times higher than NEG2 (p300^BD-BCL6^BTB): 18 times
- predominant cellular effect after 24 hours (SUDHL5 cells): arrest cells in G1
- cooperativity α (p300^WT): 4.2
